Laboratory results reported in US9417241B2, “5, 10, 15, 20-tetrakis (carboxyphenyl) porphine (TCPP) and kit for use with detecting cancer” (bioAffinity Technologies, Inc., priority 2000, dated 2016).

Tested on: sputum cells (dysplastic, pre-cancerous and cancerous cells)
Assay: Glass slide assay for detection of pre-cancerous and cancerous cells with TCPP (fluorescence microscopy of sputum monolayer slides vs PAP-stain cytomorphology)
Type: cell-based, human
Settings: for Slides with morphology using TCPP/Slides with morphology using cytomorphology: N = 60 blinded sputum samples, 40 μg/mL TCPP
[1] = of the six TCPP samples with class 11 designation

SMILES: O=C(O)c1ccc(-c2c3nc(c(-c4ccc(C(=O)O)cc4)c4ccc([nH]4)c(-c4ccc(C(=O)O)cc4)c4nc(c(-c5ccc(C(=O)O)cc5)c5ccc2[nH]5)C=C4)C=C3)cc1 [TCPP]
- Number of Samples with Cells having Numerical Description by TCPP Fluorescence Microscopy/Number of Samples with Cell Description by Cytmorphology (9 = Degenerated cell clusters, medium to high fluorescence, Moderate dysplasia (n = 9)): 0/9
- Number of Samples with Cells having Numerical Description by TCPP Fluorescence Microscopy/Number of Samples with Cell Description by Cytmorphology (9 = Degenerated cell clusters, medium to high fluorescence, Negative or metaplastic (n = 10)): 0/10
- Number of Samples with Cells having Numerical Description by TCPP Fluorescence Microscopy/Number of Samples with Cell Description by Cytmorphology (9 = Degenerated cell clusters, medium to high fluorescence, Severe dysplasia (n = 8)): 0/8
- Number of Samples with Cells having Numerical Description by TCPP Fluorescence Microscopy/Number of Samples with Cell Description by Cytmorphology (10 = Cells uniform size with small round nucleus, medium fluorescence (nucleus only), Adenicarcinoma, squamous cell and small cell carcinoma (n = 10)): 2/10
- Number of Samples with Cells having Numerical Description by TCPP Fluorescence Microscopy/Number of Samples with Cell Description by Cytmorphology (10 = Cells uniform size with small round nucleus, medium fluorescence (nucleus only), Carcinoma in situ (n = 11)): 1/11
- Number of Samples with Cells having Numerical Description by TCPP Fluorescence Microscopy/Number of Samples with Cell Description by Cytmorphology (10 = Cells uniform size with small round nucleus, medium fluorescence (nucleus only), Mild dysplasia (n = 12)): 2/12
- Number of Samples with Cells having Numerical Description by TCPP Fluorescence Microscopy/Number of Samples with Cell Description by Cytmorphology (10 = Cells uniform size with small round nucleus, medium fluorescence (nucleus only), Moderate dysplasia (n = 9)): 2/9
- Number of Samples with Cells having Numerical Description by TCPP Fluorescence Microscopy/Number of Samples with Cell Description by Cytmorphology (10 = Cells uniform size with small round nucleus, medium fluorescence (nucleus only), Negative or metaplastic (n = 10)): 2/10
- Number of Samples with Cells having Numerical Description by TCPP Fluorescence Microscopy/Number of Samples with Cell Description by Cytmorphology (10 = Cells uniform size with small round nucleus, medium fluorescence (nucleus only), Severe dysplasia (n = 8)): 1/8
- Number of Samples with Cells having Numerical Description by TCPP Fluorescence Microscopy/Number of Samples with Cell Description by Cytmorphology (11 = Cell membrane barely visible, medium fluorescence, Adenicarcinoma, squamous cell and small cell carcinoma (n = 10)): 0/10
- Number of Samples with Cells having Numerical Description by TCPP Fluorescence Microscopy/Number of Samples with Cell Description by Cytmorphology (11 = Cell membrane barely visible, medium fluorescence, Carcinoma in situ (n = 11)): 2/11
- Number of Samples with Cells having Numerical Description by TCPP Fluorescence Microscopy/Number of Samples with Cell Description by Cytmorphology (11 = Cell membrane barely visible, medium fluorescence, Mild dysplasia (n = 12)): 6/12
- Number of Samples with Cells having Numerical Description by TCPP Fluorescence Microscopy/Number of Samples with Cell Description by Cytmorphology (11 = Cell membrane barely visible, medium fluorescence, Moderate dysplasia (n = 9)): 2/9
- Number of Samples with Cells having Numerical Description by TCPP Fluorescence Microscopy/Number of Samples with Cell Description by Cytmorphology (11 = Cell membrane barely visible, medium fluorescence, Negative or metaplastic (n = 10)): 6/10
- Number of Samples with Cells having Numerical Description by TCPP Fluorescence Microscopy/Number of Samples with Cell Description by Cytmorphology (11 = Cell membrane barely visible, medium fluorescence, Severe dysplasia (n = 8)): 2/8
- Number of Samples with Cells having Numerical Description by TCPP Fluorescence Microscopy/Number of Samples with Cell Description by Cytmorphology (12 = Nuclear debris clumps, no fluorescence, Adenicarcinoma, squamous cell and small cell carcinoma (n = 10)): 0/10
- Number of Samples with Cells having Numerical Description by TCPP Fluorescence Microscopy/Number of Samples with Cell Description by Cytmorphology (12 = Nuclear debris clumps, no fluorescence, Carcinoma in situ (n = 11)): 0/11
- Number of Samples with Cells having Numerical Description by TCPP Fluorescence Microscopy/Number of Samples with Cell Description by Cytmorphology (12 = Nuclear debris clumps, no fluorescence, Mild dysplasia (n = 12)): 1/12
- Number of Samples with Cells having Numerical Description by TCPP Fluorescence Microscopy/Number of Samples with Cell Description by Cytmorphology (12 = Nuclear debris clumps, no fluorescence, Moderate dysplasia (n = 9)): 0/9
- Number of Samples with Cells having Numerical Description by TCPP Fluorescence Microscopy/Number of Samples with Cell Description by Cytmorphology (12 = Nuclear debris clumps, no fluorescence, Negative or metaplastic (n = 10)): 0/10
- Number of Samples with Cells having Numerical Description by TCPP Fluorescence Microscopy/Number of Samples with Cell Description by Cytmorphology (12 = Nuclear debris clumps, no fluorescence, Severe dysplasia (n = 8)): 0/8
- Number of Samples with Cells having Numerical Description by TCPP Fluorescence Microscopy/Number of Samples with Cell Description by Cytmorphology (13 = Nuclear debris background, no fluorescence, Adenicarcinoma, squamous cell and small cell carcinoma (n = 10)): 3/10
- Number of Samples with Cells having Numerical Description by TCPP Fluorescence Microscopy/Number of Samples with Cell Description by Cytmorphology (13 = Nuclear debris background, no fluorescence, Carcinoma in situ (n = 11)): 5/11
- Number of Samples with Cells having Numerical Description by TCPP Fluorescence Microscopy/Number of Samples with Cell Description by Cytmorphology (13 = Nuclear debris background, no fluorescence, Mild dysplasia (n = 12)): 5/12
- Number of Samples with Cells having Numerical Description by TCPP Fluorescence Microscopy/Number of Samples with Cell Description by Cytmorphology (13 = Nuclear debris background, no fluorescence, Moderate dysplasia (n = 9)): 8/9
- Number of Samples with Cells having Numerical Description by TCPP Fluorescence Microscopy/Number of Samples with Cell Description by Cytmorphology (13 = Nuclear debris background, no fluorescence, Negative or metaplastic (n = 10)): 6/10
- Number of Samples with Cells having Numerical Description by TCPP Fluorescence Microscopy/Number of Samples with Cell Description by Cytmorphology (13 = Nuclear debris background, no fluorescence, Severe dysplasia (n = 8)): 2/8
- Number of Samples with Cells having Numerical Description by TCPP Fluorescence Microscopy/Number of Samples with Cell Description by Cytmorphology (14 = Nuclear debris background, medium fluorescence, Adenicarcinoma, squamous cell and small cell carcinoma (n = 10)): 0/10
- Number of Samples with Cells having Numerical Description by TCPP Fluorescence Microscopy/Number of Samples with Cell Description by Cytmorphology (14 = Nuclear debris background, medium fluorescence, Carcinoma in situ (n = 11)): 1/11
- Number of Samples with Cells having Numerical Description by TCPP Fluorescence Microscopy/Number of Samples with Cell Description by Cytmorphology (14 = Nuclear debris background, medium fluorescence, Mild dysplasia (n = 12)): 2/12
- Number of Samples with Cells having Numerical Description by TCPP Fluorescence Microscopy/Number of Samples with Cell Description by Cytmorphology (14 = Nuclear debris background, medium fluorescence, Moderate dysplasia (n = 9)): 2/9
- Number of Samples with Cells having Numerical Description by TCPP Fluorescence Microscopy/Number of Samples with Cell Description by Cytmorphology (14 = Nuclear debris background, medium fluorescence, Negative or metaplastic (n = 10)): 1/10
- Number of Samples with Cells having Numerical Description by TCPP Fluorescence Microscopy/Number of Samples with Cell Description by Cytmorphology (14 = Nuclear debris background, medium fluorescence, Severe dysplasia (n = 8)): 1/8
- Avg. # numerical descriptions per cell examined (Adenicarcinoma, squamous cell and small cell carcinoma (n = 10)): 4.90
- Slides with morphology using TCPP/Slides with morphology using cytomorphology (Adenocarcinoma, squamous cell and small cell carcinoma): 10/10
- Avg. # numerical descriptions per cell examined (Carcinoma in situ (n = 11)): 4.82
- Slides with morphology using TCPP/Slides with morphology using cytomorphology (Carcinoma in situ): 11/11
- Avg. # numerical descriptions per cell examined (Mild dysplasia (n = 12)): 3.08
- Slides with morphology using TCPP/Slides with morphology using cytomorphology (Mild dysplasia): 12/12
- Avg. # numerical descriptions per cell examined (Moderate dysplasia (n = 9)): 4.11
- Slides with morphology using TCPP/Slides with morphology using cytomorphology (Moderate dysplasia): 9/9
- Avg. # numerical descriptions per cell examined (Negative or metaplastic (n = 10)): 1.80
- Slides with morphology using TCPP/Slides with morphology using cytomorphology (Negative or metaplastic, 10 minutes, 36° C.): 4/10
- Avg. # numerical descriptions per cell examined (Severe dysplasia (n = 8)): 3.13
- Slides with morphology using TCPP/Slides with morphology using cytomorphology (Severe dysplasia): 8/8
- Samples demonstrating the same morphology using the TCPP method (among the ten samples characterized as normal or metaplastic by PAP-staining): four
- Sputum samples mildly dysplastic to cancerous by PAP-staining also identified as abnormal by TCPP detection (blinded study, 60 samples): Fifty out of fifty
- Average number of numerical classifications assigned (cells displaying adenicarcinoma, squamous cell and small cell carcinoma): 5
- Average number of numerical classifications assigned (cells having a negative or metaplastic morphology): 2
- Samples also indicating fluorescence from nuclear debris (class 13 or 14) [1]: three
- Samples also showing class 10 designation (fluorescence from the nucleus only) [1]: two
- Samples designated with a class 11 cell description based on TCPP fluorescence (of the ten cell samples negative or metaplastic by PAP-staining): 6
- TCPP uptake (samples diagnosed as normal): minimal or no TCPP uptake
- TCPP-exposed cells fluorescing at which the sample reliably correlated with at least the mildly dysplastic diagnosis (sputum monolayer slides): 2-3%
